One assay relates to mouse stromal tissues. Briefly: Transcriptional profiling of GEO xenograft tumors on mouse 430A arrays (genes in mouse stromal tissues). The note with it: for ESM1 level: after 2 hours treatment; for expression value of ESM1 in stromal tissue: treatment at 17 Days, in comparison with the control (FIG. 1). In kind it is in vivo. How it is done: (§1) Tumors were propagated in nude mice as subcutaneous (sc) implants using human GEO colon tumor cell lines. Tumors were maintained in nude mice by serial passage. Treated animals were checked daily for treatment related toxicity/mortality. Each group of animals was weighed before the initiation of treatment (Wt1) and then again following the last treatment dose (Wt2). The difference in body weight (Wt2-Wt1) provided an overt measure of treatment-related toxicity. […] Tumor response was determined by measurement of tumors with a caliper twice a week, until the tumors reached a predetermined target size. Animals that were distributed to various treatment and control groups during the study were eventually sacrificed to obtain tumor and blood samples for genomic and protein analysis (Table 1).
(§2) Mouse GEO xenograft tumors, treated and non-treated, were surgically removed at appropriate time points and split into two halves. One half of the tumor was mixed in a vial of 10% formalin to be used for IHC and the other half was mixed in 1.0 ml of RNAlater™ RNA Stabilization Reagent (Ambion, Inc., Austin, Tex.) held at room temperature for 30-minutes then stored at −80° C. Total RNA was extracted from the tumor samples using the RNeasy Kit™ (Qiagen, Valencia Calif.). A least 1 μg total RNA with a 260/280 ratio >1.8 by spectrophotometry (DU640 UV, Beckman Coulter, Fullerton, Calif.) was required for transcriptional profiling. Briefly, the tumor samples were homogenized in a lysis-binding solution supplied by Qiagen. An equal volume of ethanol was mixed into each sample, the mixture was passed through the filter cartridges provided, and the rest of the extraction protocol was followed (Ambion). RNA yield and quality were assessed on a standard 1% agarose gel. […] RNA samples were stored at −80° C.
(§3) Transcriptional profiling was performed on the RNA obtained from the GEO xenograft tumor samples. The Affymetrix GeneChip system (Affymetrix, Santa Clara, Calif.) was used for hybridization and scanning of the human U133A and mouse 430A arrays. Generation of cRNA followed a standard T7 amplification protocol. Total RNA was reverse-transcribed with SuperScript II™ (Gibco, Carlsbad, Calif.) in the presence of T7-(dT)24 primer to generate first strand cDNA. A second-strand cDNA synthesis was performed in the presence of DNA Polymerase I, DNA ligase, and RNase H (Gibco). The resulting double-stranded cDNA was blunt-ended using T4 DNA polymerase. This double-stranded cDNA was then transcribed into cRNA in the presence of biotin-ribonucleotides using the BioArray High Yield RNA transcript labeling kit (Enzo Life Sciences, Farmingdale, N.Y.). The amplified, biotin-labeled cRNA was purified using Qiagen RNeasy™ columns (Qiagen Sciences), quantified and fragmented at 94° C. for 35 minutes in the presence of fragmentation buffer (1×). Fragmented cRNA was hybridized to the Affymetrix U113A and 430A arrays overnight at 42° C. The arrays were then placed in the fluidics stations for staining and washing as recommended by Affymetrix protocols. The chips were scanned and raw intensity values were generated for each probe on the arrays.
(§4) 20 HG-U133A2 chips were normalized by the RMA (Robust Multi-array Analysis) method as described by R. A. Irizarry et al., Nucleic Acids Res., February 15; 31(4):e15 (2003). The same normalization was done for the 20 Mouse430A2 chips.
(§5) Differentially expressed genes were defined as: (i) FDR (false discovery rate) q value less than 0.05 when comparing specific compound treatment at single time point to the control (no treatment) at 0 time point and (ii) fold change bigger than 2 (log2Foldchange>1 or <−1) when compared specific treatment to control.

Assay [1] has as its system human GEO colon tumor xenograft tumor tissues. The assay can be described thus: Transcriptional profiling of GEO xenograft tumors on human U133A arrays (genes in tumor tissues). The class given is in vivo. How it is done: as §1, §2, §3, §4, §5
Background: Xenograft models place foreign cells or tissue in a host animal.

The next assay concerns human GEO colon tumor. The assay can be described thus: Tumor growth in GEO colon cancer model (caliper measurement). The note with it: compared to bevacizumab. The class given is in vivo, nude mice. The method, then:
as §1

The target of another assay is VEGFR-2 (Homo sapiens, UniProt P35968). Briefly: Inhibition of VEGFR-2. The class given is biochemical.
Another assay deals with FGFR-1 (Homo sapiens, UniProt P11362). The assay can be described thus: Inhibition of FGFR-1. In kind it is biochemical.
The target of the next assay is FGFR-2 (Homo sapiens, UniProt P21802). The assay can be described thus: Inhibition of FGFR-2. In kind it is biochemical.
The mark [2] stands for this setting: mouse stroma tissue, 17 days time point.
Where [3] appears, read: tumor xenografts, after 17 days.
The mark [4] stands for this setting: xenograft tumor tissues, 17 days (FIG. 4).

Sequence of FGFR-2 (P21802 22-821, species assumed): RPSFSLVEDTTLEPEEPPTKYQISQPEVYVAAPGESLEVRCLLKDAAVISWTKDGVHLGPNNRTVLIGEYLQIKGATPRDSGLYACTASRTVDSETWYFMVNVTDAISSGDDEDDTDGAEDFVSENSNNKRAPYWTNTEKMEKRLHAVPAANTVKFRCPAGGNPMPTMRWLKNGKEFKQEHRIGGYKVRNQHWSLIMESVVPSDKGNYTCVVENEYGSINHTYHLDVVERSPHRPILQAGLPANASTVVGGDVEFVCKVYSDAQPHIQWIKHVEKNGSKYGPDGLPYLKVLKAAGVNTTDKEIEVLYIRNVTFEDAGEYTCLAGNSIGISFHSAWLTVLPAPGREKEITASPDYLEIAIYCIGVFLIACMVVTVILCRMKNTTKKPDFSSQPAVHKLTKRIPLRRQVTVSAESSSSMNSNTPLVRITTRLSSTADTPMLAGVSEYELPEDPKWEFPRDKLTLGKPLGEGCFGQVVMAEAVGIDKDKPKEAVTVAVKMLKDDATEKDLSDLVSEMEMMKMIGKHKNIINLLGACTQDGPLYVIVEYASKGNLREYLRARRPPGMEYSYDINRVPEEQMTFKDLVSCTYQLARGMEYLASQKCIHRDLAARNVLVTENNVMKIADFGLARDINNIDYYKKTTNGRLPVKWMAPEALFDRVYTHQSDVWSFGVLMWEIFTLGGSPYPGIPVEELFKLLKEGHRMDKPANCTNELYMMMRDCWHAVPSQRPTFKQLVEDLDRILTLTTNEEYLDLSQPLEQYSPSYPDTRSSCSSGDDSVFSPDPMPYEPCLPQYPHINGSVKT
Sequence of FGFR-1 (P11362 22-822, species assumed): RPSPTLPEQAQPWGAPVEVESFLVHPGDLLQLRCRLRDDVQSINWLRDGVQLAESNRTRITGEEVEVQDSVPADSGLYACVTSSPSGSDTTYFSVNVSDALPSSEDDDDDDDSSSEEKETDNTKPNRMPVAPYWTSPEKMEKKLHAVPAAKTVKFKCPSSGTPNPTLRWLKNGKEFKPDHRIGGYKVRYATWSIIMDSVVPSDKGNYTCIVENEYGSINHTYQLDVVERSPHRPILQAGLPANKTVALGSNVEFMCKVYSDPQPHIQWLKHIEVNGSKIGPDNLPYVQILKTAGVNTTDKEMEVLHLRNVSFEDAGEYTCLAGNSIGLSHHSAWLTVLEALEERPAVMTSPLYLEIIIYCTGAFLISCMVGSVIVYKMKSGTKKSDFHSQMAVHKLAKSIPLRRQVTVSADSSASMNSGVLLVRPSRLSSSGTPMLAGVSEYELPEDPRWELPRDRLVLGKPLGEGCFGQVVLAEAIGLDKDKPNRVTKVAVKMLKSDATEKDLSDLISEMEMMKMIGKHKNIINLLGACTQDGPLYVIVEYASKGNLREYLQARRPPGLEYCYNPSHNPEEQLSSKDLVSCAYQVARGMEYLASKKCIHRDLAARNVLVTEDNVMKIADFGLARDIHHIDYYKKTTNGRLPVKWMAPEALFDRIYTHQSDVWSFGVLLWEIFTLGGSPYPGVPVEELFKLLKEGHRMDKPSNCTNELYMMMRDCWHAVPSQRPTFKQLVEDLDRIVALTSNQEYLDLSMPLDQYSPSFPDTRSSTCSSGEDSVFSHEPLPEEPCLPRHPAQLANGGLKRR
Sequence of VEGFR-2 (P35968 20-1356, species assumed): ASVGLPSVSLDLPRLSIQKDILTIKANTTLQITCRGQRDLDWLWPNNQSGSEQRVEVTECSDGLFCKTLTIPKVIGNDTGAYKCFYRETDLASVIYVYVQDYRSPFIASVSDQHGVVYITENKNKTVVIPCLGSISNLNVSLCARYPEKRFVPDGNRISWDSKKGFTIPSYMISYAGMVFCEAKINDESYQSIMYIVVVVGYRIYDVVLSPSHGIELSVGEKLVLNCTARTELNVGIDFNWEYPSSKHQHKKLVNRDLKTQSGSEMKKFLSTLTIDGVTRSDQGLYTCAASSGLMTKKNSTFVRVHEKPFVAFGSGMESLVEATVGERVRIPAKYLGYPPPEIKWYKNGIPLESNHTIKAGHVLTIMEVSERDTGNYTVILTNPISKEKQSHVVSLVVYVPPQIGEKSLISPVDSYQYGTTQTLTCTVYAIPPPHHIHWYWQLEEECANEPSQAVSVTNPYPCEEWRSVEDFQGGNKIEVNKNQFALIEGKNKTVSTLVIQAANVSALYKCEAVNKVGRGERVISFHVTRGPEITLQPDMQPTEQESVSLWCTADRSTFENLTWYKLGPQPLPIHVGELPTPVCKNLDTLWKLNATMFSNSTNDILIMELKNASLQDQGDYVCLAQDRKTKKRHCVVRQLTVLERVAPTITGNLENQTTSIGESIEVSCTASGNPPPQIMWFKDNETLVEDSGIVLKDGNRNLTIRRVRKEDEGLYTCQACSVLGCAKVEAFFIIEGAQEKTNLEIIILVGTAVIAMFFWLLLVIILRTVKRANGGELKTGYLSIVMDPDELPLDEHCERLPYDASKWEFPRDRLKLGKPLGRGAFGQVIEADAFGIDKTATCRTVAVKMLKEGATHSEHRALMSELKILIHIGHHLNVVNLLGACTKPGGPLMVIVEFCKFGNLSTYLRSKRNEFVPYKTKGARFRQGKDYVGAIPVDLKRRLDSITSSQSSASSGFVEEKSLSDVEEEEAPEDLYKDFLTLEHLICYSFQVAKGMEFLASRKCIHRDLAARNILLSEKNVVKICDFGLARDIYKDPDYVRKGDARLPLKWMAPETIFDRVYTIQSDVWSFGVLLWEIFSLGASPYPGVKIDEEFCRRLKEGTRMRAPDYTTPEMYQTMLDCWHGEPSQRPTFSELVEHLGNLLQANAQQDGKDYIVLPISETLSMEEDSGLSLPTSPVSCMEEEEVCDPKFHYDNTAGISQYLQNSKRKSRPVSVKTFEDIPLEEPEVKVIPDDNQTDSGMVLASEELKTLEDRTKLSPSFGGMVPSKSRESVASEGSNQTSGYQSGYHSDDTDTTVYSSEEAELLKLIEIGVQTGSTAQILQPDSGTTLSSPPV

For the compound “bevacizumab: AVASTIN (bevacizumab), indirectly inhibits the VEGFR-2 signaling pathway by preventing VEGF ligand binding [reference compound]”, in the assay with mouse stromal tissues, the ESM1 level result is on record as “decreasing trend” and the “expression value of ESM1 in stromal tissue” value was “significantly decreases”.

As to `Cc1cc2c(F)c(Oc3ncnn4cc(OC[C@@H](C)OC(=O)[C@H](C)N)c(C)c34)ccc2[nH]1` [compound 1, [(1R), 2S]-2-Aminopropionic acid 2-[4-(4-fluoro-2-methyl-1H-indol-5-yloxy)-5-methylpyrrolo[2,1-f][1,2,4]triazin-6-yloxy]-1-methylethyl ester], in the assay on mouse stromal tissues, the ESM1 level entry is “decreasing trend” and the “expression value of ESM1 in stromal tissue” value is “significantly decreases”. Moreover, in the assay on mouse stromal tissues (setting [2]), the “expression level of S100A8” value is “up-regulated” and the “expression level of S100A9” value is given as “up-regulated”. Besides, the CD14 expression result with mouse stromal tissues (upon treatment, 17 days) is on record as “elevated”. The CEACAM1 expression entry in assay [1] (3 probe sets (206576_s_at, 211889_x_at, 209498_at), treatment at 17 days) was “significant increase”. For the same compound, the “expression level of RAGE, up-regulated” value in assay [1] (human xenograft tissue, 17 days, FDR q=0.002) turned out to be 1.9 fold. The compound also had an AKAP7 inhibited in assay [1] (treatment at 17 days, FDR q<0.008 (FIG. 4)) of 3.5 fold. The EMP1 up-regulated in assay [1] (tumor tissue, 17 Days, significant FDR q values (FIG. 3)) was determined as 3.9 fold. Further, in assay [1] (setting [3]), the FGF-8 levels result is “elevated”, the FGF-18 levels result was “elevated”, the FGF-22 levels entry was “elevated” and the FGFR-2 levels result is “elevated”. Further, the FGF-2 levels entry in assay [1] (tumor xenografts, after 17 days, low expression) is on record as “didn't change much”. Also, in assay [1] (setting [4]), the “Expression of Collagen 18” value is reported as “up-regulated”, the VEGF expression result is “up-regulated” and the VEGFB expression result is recorded as “up-regulated”. Moreover, the “ability to inhibit tumor growth” value in the assay with human GEO colon tumor is “increase affect on the ability to inhibit tumor growth when compared to bevacizumab”. The “inhibition of VEGFR-2” value against VEGFR-2 is listed as “potent inhibition”. The “inhibition of FGFR-1” value against FGFR-1 is recorded as “inhibition”. The “inhibition of FGFR-2” value at FGFR-2 is “inhibition”.

The record behind these values is US20100035259A1, “BIOMARKERS AND METHODS FOR DETERMINING SENSITIVITY TO VASCULAR ENDOTHELIAL GROWTH FACTOR RECEPTOR-2 MODULATORS” (Bristol-Myers Squibb Company, priority 2007, published 2010).
